From patent EP0687258B1, “SUBSTITUTED IMINOACETONITRILES WITH MYOCARDIAL PROTECTIVE EFFECT” (HOECHST AKTIENGESELLSCHAFT, priority 1993, dated 1994) come the findings set out here.

In this assay the test system is isoliert perfundierten Rattenherzens. As to the kind of experiment: Isolated perfused rat heart (Langendorff), anoxia/reoxygenation, release of lactate dehydrogenase into the perfusate. Set-up: species or system Wistarratten. The note with it: for Freisetzung von Laktatdehydrogenase (großer initialer Enzymverlust) während der Reoxygenationsphase: closed circles, n = 4 hearts; for Enzymverlust nach anschließendem Auswaschen der Substanz: open circles. On the procedure: Die pharmakologische Wirkung der erfindungsgemäßen Verbindungen der allgemeinen Formel I sowie des N-Morpholino-iminoacetonitrils wurden am Modell des isoliert perfundierten Rattenherzens untersucht.
Dazu wurden Herzen von 200 - 250 g schweren Wistarratten in einer temperaturkontrollierten Kammer (37°C) an ein Langendorff-Perfusionssystem gehängt. Die Kammer war während normoxischer Perfusionen mit Luft, während anoxischer mit 95 % N2 plus 5 % CO2 gefüllt. […] Für eine initiale Stabilisierungsperiode von 30 min wurden die Herzen mit einem oxygenierten salinen Medium perfundiert (Zusammensetzung in mM: 140.0 NaCl, 24.0 NaHCO3, 2.7 KCl, 0.4 NaH2PO4, 1.0 MgCl2, 1.8 CaCl2, 5.0 Glucose, äquilibriert mit 95 % O2 und 5 % CO2, pH 7.4). Für anoxische Perfusionen wurde diese initiale normoxische Stabilisierungsperiode gefolgt von 60 min Perfusion, mit einem Fluß von 5 ml/min von anoxoischem Medium (Zusammensetzung wie zuvor, aber ohne Glucose und äquilibriert mit 95 % N2 und 5 % CO2, pH 7.4). Die anoxisch perfundierten Herzen wurden nachfolgend durch Zurückschalten auf die initialen normoxischen Perfusionsbedingungen reoxygeniert.
In Versuchen mit den Testsubstanzen wurden diese dem anoxischen Perfusat während der letzten 15 min zugefügt. Die ersten 60 min der Reoxygenationsphase wurden ebenfalls in Gegenwart der Testsubstanzen durchgeführt. Danach wurde ohne diese Substanzen die normoxische Perfusion für weitere 45 min fortgesetzt.
Die Herzschädigung wurde charakterisiert durch die Freisetzung des zytosolischen Enzyms Laktatdehydrogenase (LDH) in das Perfusat. Während der Herzperfusion wurden 1-minütige Sammelproben des Effluats gesammelt. Die Aktivität von LDH wurde auch in Homogenaten ganzer Rattenherzen gemessen (präpariert in 100 mM Phosphatpuffer, pH 7.4, mit 1 % Triton X-100). […] Der Enzymverlust wurde in Prozenten der initialen Gesamtgewebsaktivitäten angegeben.

Regarding `CC(=O)C(C)=NO` [Butandionmonoxim, reference compound], the “Freisetzung von Laktatdehydrogenase (großer initialer Enzymverlust) während der Reoxygenationsphase” value (reoxygenation after 60 min anoxia in presence of 20 mM test substance, Abbildung 1 C) is “weitgehend unterdrückt”. The “Enzymverlust nach anschließendem Auswaschen der Substanz” value (washout after reoxygenation in presence of 20 mM test substance, Abbildung 1 C) is on record as “geringen initialen Steigerung des Enzymverlustes”.

Regarding `N#CC=NN1CCOCC1` [N-Morpholino-iminoacetonitril], where the note is “relative to BDM (10 mM vs 20 mM)”, the “Wirksamkeit im Vergleich zu BDM” value was “etwa doppelt so hoch wie die von BDM”. Where the note is “reoxygenation after 60 min anoxia in presence of 10 mM test substance, Abbildung 1 B”, the “Freisetzung von Laktatdehydrogenase (großer initialer Enzymverlust) während der Reoxygenationsphase” value is given as “weitgehend unterdrückt”. Further, the “reoxygenationsbedingte Myokardschädigung” value (summary of the results shown) is “deutlich reduziert”. Moreover, the “Enzymverlust nach anschließendem Auswaschen der Substanz” value (washout after reoxygenation in presence of 10 mM test substance, Abbildung 1 B) is “keiner weiteren Steigerung des Enzymverlusts”.
